Test results: patent US20210094971A1, “HETEROCYCLIC COMPOUNDS” (Hoffmann-La Roche Inc., priority 2019, published 2021)

What follows are molecules tested against T1, MAGL (Homo sapiens, UniProt Q99685) (assay: 2-AG assay (MAGL inhibitory activity, hydrolysis of 2-arachidonoylglycerol followed by mass spectrometry)). Details: 50 pM MAGL, 8 μM 2-arachidonoylglycerol, 15 min pre-incubation, 30 min incubation at RT.
T1 sequence (Q99685 1-303): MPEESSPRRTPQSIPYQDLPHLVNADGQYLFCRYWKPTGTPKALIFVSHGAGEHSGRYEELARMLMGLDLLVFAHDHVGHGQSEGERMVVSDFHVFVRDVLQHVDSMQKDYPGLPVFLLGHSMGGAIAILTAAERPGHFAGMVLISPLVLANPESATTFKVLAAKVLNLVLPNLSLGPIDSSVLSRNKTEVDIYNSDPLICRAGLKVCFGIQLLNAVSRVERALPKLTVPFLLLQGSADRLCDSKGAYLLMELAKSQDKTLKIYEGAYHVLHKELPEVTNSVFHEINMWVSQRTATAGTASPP
Assay type: biochemical
Experimental: Compounds were profiled for MAGL inhibitory activity by determining the enzymatic activity by following the hydrolysis of the natural substrate 2-arachidonoylglycerol resulting in arachidonic acid, which can be followed by mass spectrometry. This assay is hereinafter abbreviated “2-AG assay”.
The 2-AG assay was carried out in 384 well assay plates (PP, Greiner Cat# 784201) in a total volume of 20 μL. Compound dilutions were made in 100% DMSO (VWR Chemicals 23500.297) in a polypropylene plate in 3-fold dilution steps to give a final concentration range in the assay from 12.5 μM to 0.8 pM. 0.25 μL compound dilutions (100% DMSO) were added to 9 μL MAGL in assay buffer (50 mM TRIS (GIBCO, 15567-027), 1 mM EDTA (Fluka, 03690-100 ml), 0.01% (v/v) Tween. After shaking, the plate was incubated for 15 min at RT. To start the reaction, 10 μL 2-arachidonoylglycerol in assay buffer was added. The final concentrations in the assay was 50 pM MAGL and 8 μM 2-arachidonoylglyerol. After shaking and 30 min incubation at RT, the reaction was quenched by the addition of 40 μL of acetonitrile containing 4 μM of d8-arachidonic acid. The amount of arachidonic acid was traced by an online SPE system (Agilent Rapidfire) coupled to a triple quadrupole mass spectrometer (Agilent 6460). A C18 SPE cartridge (G9205A) was used in an acetonitrile/water liquid setup. The mass spectrometer was operated in negative electrospray mode following the mass transitions 303.1→259.1 for arachidonic acid and 311.1→267.0 for d8-arachidonic acid. The activity of the compounds was calculated based on the ratio of intensities [arachidonic acid/d8-arachidonic acid].

| Molecule | IC50 [nM] |
| --- | --- |
| O=C1CO[C@H]2CCN(C(=O)N3[C@@H]4COC[C@H]3C[C@@H](OCc3ccc(C(F)(F)F)cc3F)C4)C[C@H]2N1 [Example 23, (4aR,8aS)-6-[(1S,5R)-7-[[2-fluoro-4-(trifluoromethyl)phenyl]methoxy]-3-oxa-9-azabicyclo[3.3.1]nonane-9-carbonyl]-4,4a,5,7,8,8a-hexahydropyrido[4,3-b][1,4]oxazin-3-one] | 628 |
| O=C1CO[C@H]2CCN(C(=O)N3[C@@H]4CC[C@H]3C[C@H](OCc3ccc(C(F)(F)F)cc3F)C4)C[C@H]2N1 [Example 24, (4aR,8aS)-6-[(1S,5R)-3-[[2-fluoro-4-(trifluoromethyl)phenyl]methoxy]-8-azabicyclo[3.2.1]octane-8-carbonyl]-4,4a,5,7,8,8a-hexahydropyrido[4,3-b][1,4]oxazin-3-one] | 1.4 |
| O=C1CO[C@H]2CCN(C(=O)N3C[C@@H]4[C@@H](COc5ccc(C(F)(F)F)cc5F)[C@@H]4C3)C[C@H]2N1 [Example 25, (4aR,8aS)-6-[(1R,5S,6r)-6-[[2-fluoro-4-(trifluoromethyl)phenoxy]methyl]-3-azabicyclo[3.1.0]hexane-3-carbonyl]-4,4a,5,7,8,8a-hexahydropyrido[4,3-b][1,4]oxazin-3-one] | 32 |
| O=C1CO[C@H]2CCN(C(=O)N3C4CCC3CC(COc3ccc(F)cc3Cl)C4)C[C@H]2N1 (stereo partly drawn) [Example 26, (4aR,8aS)-6-[3-[(2-chloro-4-fluoro-phenoxy)methyl]-8-azabicyclo[3.2.1]octane-8-carbonyl]-4,4a,5,7,8,8a-hexahydropyrido[4,3-b][1,4]oxazin-3-one] | 3690 |
| O=C1CO[C@@H]2CCN(C(=O)N3CC4CCC(C3)C4COc3ccc(F)cc3Cl)C[C@@H]2N1 (stereo partly drawn) [Example 27, (4aS,8aR)-6-[8-[(2-chloro-4-fluoro-phenox)methyl]-3-azabicyclo[3.2.1]octane-3-carbonyl]-4,4a,5,7,8,8a-hexahydropyrido[4,3-b][1,4]oxazin-3-one] | 670 |

Continued, values first:

| IC50 [nM] | Molecule |
| --- | --- |
| 16.2 | (4aR,8aS)-6-[rel-(1R,4R,5S)-5- [(5-chloro-4-cyclopropyl-2- pyridyl)methoxy]-2- azabicyclo[2.2.1]heptane-2- carbonyl]-4,4a,5,7,8,8a- hexahydropyrido[4,3- b][1,4]oxazin-3-one [Example 10] |
| 82.5 | (4aR,8aS)-6-[rel-(1R,4R,5S)-5- [(5-chloro-4-cyclopropyl-2- pyridyl)methoxy]-2- azabicyclo[2.2.1]heptane-2- carbonyl]-4,4a,5,7,8,8a- hexahydropyrido[4,3- b][l,4]oxazin-3-one [Example 11] |
| 9.7 | (4aR,8aS)-6-[rel-(1R,4R,5S)-5- [[2-fluoro-4- (trifluoromethyl)phenyl]methoxy]- 2-azabicyclo[2.2.1]heptane-2- carbonyl]-4,4a,5,7,8,8a- hexahydropyrido[4,3- b][1,4]oxazin-3-one [Example 20] |
| 18.6 | (4aR,8aS)-6-[rel-(1R,4R,5S)-5- [[2-fluoro-4- (trifluoromethyl)phenyl]methoxy]- 2-azabicyclo[2.2.1]heptane-2- carbonyl]-4,4a,5,7,8,8a- hexahydropyrido[4,3- b][1,4]oxazin-3-one [Example 21] |
